The assay relates to aCD3/aCD28-stimulated human PBMCs. The experiment in a line: Cytokine production in aCD3/aCD28 stimulated human PBMCs. The class given is cell-based. As to conditions: PBMC, 18 h. As to the method: In order to determine the immune modulatory effect of compounds of compounds of the present invention in human PBMCs, compounds were assessed in the following assay set-up:
Buffy coats were obtained from a local hospital, diluted 3 fold with PBS and layered onto an isotonic Ficoll separating solution d=1.077 g/mL in 50 mL centrifuge tubes. The tubes were centrifuged at 914 g for 25 min at room temperature with the brakes off. The PBMC layer was removed and washed twice with ice-cold PBS. Erythrocytes were lysed by addition of ddH2O and cells were resuspended in X-Vivo15 (Lonza).
1e6 cells/mL were stimulated with soluble anti CD3/CD28 antibodies (1 μg/mL both, clones OKT3 and 28.2) in the presence of described compounds. Cells were incubated for 18 h at 37° C., 5% CO2. Assay plates were centrifuged at 400 g for 5 min and supernatants harvested. Cytokine concentration in tissue culture supernatants were determined with MSD or HTRF kits (MSD and Cisbio), according to manufacturer's instructions.

Setting [1] is: enhancement of IFN-γ production, read-out: Activity Class IFN-γ.
[2] abbreviates: enhancement of IL-2 production, read-out: Activity Class IL-2.

Structures can show the parent of a compound that is named as a salt. Where two headings read alike, the source gives them in different places. A value given as a limit tells only on which side of the number the result lay.

Turning to `C#CCCCNC(=O)c1cc2c(cc1F)S(=O)(=O)C[C@H](N)C(=O)N2Cc1ccc(Cl)cc1` [Example 174, (3R)-3-amino-5-[(4-chlorophenyl)methyl]-8-fluoro-1,1,4-trioxo-N-(pent-4-yn-1-yl)-2,3,4,5-tetrahydro-1λ^6,5-benzothiazepine-7-carboxamide], the EC50 by setting is: under setting [1], 1.58 to 5.01 µM; under setting [2], 1.58 to 5.01 µM.

In the case of `N#Cc1ccc(CN2C(=O)[C@@H](N)CS(=O)(=O)c3cc(F)c(C(=O)NCc4ccc(F)cc4)cc32)cc1` [Example 170, (3R)-3-amino-5-[(4-cyanophenyl)methyl]-8-fluoro-N-[(4-fluorophenyl)methyl]-1,1,4-trioxo-2,3,4,5-tetrahydro-1λ^6,5-benzothiazepine-7-carboxamide], the EC50 by setting is: under setting [1], less than 1.58 µM; under setting [2], less than 1.58 µM.

`CN(C)c1cc2c(cc1C(=O)NCc1ccccc1)N(Cc1ccc(Cl)cc1)C(=O)[C@@H](N)CS2(=O)=O` [Example 116, (3R)-3-amino-N-benzyl-5-[(4-chlorophenyl)methyl]-8-(dimethylamino)-1,1,4-trioxo-2,3,4,5-tetrahydro-1λ^6,5-benzothiazepine-7-carboxamide hydrochloride]: the EC50 is 1.58 to 5.01 µM under setting [1] and more than 5.01 µM under setting [2].

As to `N[C@H]1CS(=O)(=O)c2ccc(C(=O)N[C@@H]3CCOC3)cc2N(Cc2ccc(Cl)cc2)C1=O` [Example 156, (3R)-3-amino-5-[(4-chlorophenyl)methyl]-1,1,4-trioxo-N-[(3R)-oxolan-3-yl]-2,3,4,5-tetrahydro-1λ^6,5-benzothiazepine-7-carboxamide], the EC50 by setting is: under setting [1], more than 5.01 µM; under setting [2], more than 5.01 µM.

With `C#CCCNC(=O)c1cc2c(cc1F)S(=O)(=O)C[C@H](N)C(=O)N2Cc1ccc(Cl)cc1` [Example 173, (3R)-3-amino-N-(but-3-yn-1-yl)-5-[(4-chlorophenyl)methyl]-8-fluoro-1,1,4-trioxo-2,3,4,5-tetrahydro-1λ^6,5-benzothiazepine-7-carboxamide], the EC50 runs as follows: under setting [1], 1.58 to 5.01 µM; under setting [2], more than 5.01 µM.

Regarding `COCCNC(=O)c1ccc2c(c1)N(Cc1ccc(Cl)cc1)C(=O)[C@@H](N)CS2` [Example 20, (3R)-3-amino-5-[(4-chlorophenyl)methyl]-N-(2-methoxyethyl)-4-oxo-2,3,4,5-tetrahydro-1,5-benzothiazepine-7-carboxamide hydrochloride], the EC50 under setting [1] was 1.58 to 5.01 µM and the EC50 under setting [2] was more than 5.01 µM.

With `CCN[C@H]1CS(=O)(=O)c2cc(F)c(C(=O)NCCCC(F)(F)F)cc2N(Cc2ccc(Cl)cc2)C1=O` [Example 182, (3R)-5-[(4-chlorophenyl)methyl]-3-(ethylamino)-8-fluoro-1,1,4-trioxo-N-(4,4,4-trifluorobutyl)-2,3,4,5-tetrahydro-1λ^6,5-benzothiazepine-7-carboxamide], the EC50 is 1.58 to 5.01 µM under setting [1] and more than 5.01 µM under setting [2].

On to `N[C@H]1CS(=O)(=O)c2ccc(C(=O)NCC3CCOCC3)cc2N(Cc2ccc(OC(F)F)cc2)C1=O` [Example 164, (3R)-3-amino-5-{[4-(difluoromethoxy)phenyl]methyl}-N-[(oxan-4-yl)methyl]-1,1,4-trioxo-2,3,4,5-tetrahydro-1λ^6,5-benzothiazepine-7-carboxamide], for which the EC50 reads like this: under setting [1], more than 5.01 µM; under setting [2], more than 5.01 µM.

For `COCCOCCNC(=O)c1cc2c(cc1F)S(=O)(=O)C[C@H](N)C(=O)N2Cc1ccc(Cl)cc1` [Example 172, (3R)-3-amino-5-[(4-chlorophenyl)methyl]-8-fluoro-N-[2-(2-methoxyethoxy)ethyl]-1,1,4-trioxo-2,3,4,5-tetrahydro-1λ^6,5-benzothiazepine-7-carboxamide], the EC50 reads like this: under setting [1], 1.58 to 5.01 µM; under setting [2], more than 5.01 µM.

For the compound `N[C@H]1CS(=O)(=O)c2cc(F)c(C(=O)NC3CCOCC3)cc2N(Cc2ccc(Cl)cc2)C1=O` [Example 144, (3R)-3-amino-5-[(4-chlorophenyl)methyl]-8-fluoro-N-(oxan-4-yl)-1,1,4-trioxo-2,3,4,5-tetrahydro-1λ^6,5-benzothiazepine-7-carboxamide], the EC50 by setting is: under setting [1], 1.58 to 5.01 µM; under setting [2], more than 5.01 µM.

As for `CC(C)NC(=O)c1ccc2c(c1)N(Cc1ccc(Cl)cc1)C(=O)[C@@H](N)CS2` [Example 61, (3R)-3-amino-5-[(4-chlorophenyl)methyl]-4-oxo-N-(propan-2-yl)-2,3,4,5-tetrahydro-1,5-benzothiazepine-7-carboxamide hydrochloride], the EC50 is 1.58 to 5.01 µM under setting [1] and more than 5.01 µM under setting [2].

Consider `N[C@H]1CS(=O)(=O)c2ccc(C(=O)NCC3CCOC3)cc2N(Cc2ccc(Cl)cc2)C1=O` (stereo partly drawn) [Example 157, (3R)-3-amino-5-[(4-chlorophenyl)methyl]-1,1,4-trioxo-N-[(oxolan-3-yl)methyl]-2,3,4,5-tetrahydro-1λ^6,5-benzothiazepine-7-carboxamide], for which the EC50 was more than 5.01 µM under setting [1] and more than 5.01 µM under setting [2].

As for `COc1cccc(CN2C(=O)[C@@H](N)CS(=O)(=O)c3ccc(C(=O)NC4CC(F)(F)C4)cc32)c1` [Example 149, (3R)-3-amino-N-(3,3-difluorocyclobutyl)-5-[(3-methoxyphenyl)methyl]-1,1,4-trioxo-2,3,4,5-tetrahydro-1λ^6,5-benzothiazepine-7-carboxamide], the EC50 reads like this: under setting [1], more than 5.01 µM; under setting [2], more than 5.01 µM.

Consider `COc1ccc(CNC(=O)c2ccc3c(c2)N(Cc2ccc(Cl)cc2)C(=O)[C@@H](N)CS3(=O)=O)cn1` [Example 177, (3R)-3-amino-5-[(4-chlorophenyl)methyl]-N-[(6-methoxypyridin-3-yl)methyl]-1,1,4-trioxo-2,3,4,5-tetrahydro-1λ^6,5-benzothiazepine-7-carboxamide], for which the EC50 under setting [1] was less than 1.58 µM and the EC50 under setting [2] was 1.58 to 5.01 µM.

Turning to `Cc1nc(-c2ccc(CN3C(=O)[C@@H](N)CS(=O)(=O)c4ccc(C(=O)NC5CC5(F)F)cc43)cc2)no1` (stereo partly drawn) [Example 121, (3R)-3-amino-N-(2,2-difluorocyclopropyl)-5-{[4-(5-methyl-1,2,4-oxadiazol-3-yl)phenyl]methyl}-1,1,4-trioxo-2,3,4,5-tetrahydro-1λ^6,5-benzothiazepine-7-carboxamide hydrochloride], the EC50 was more than 5.01 µM under setting [1] and more than 5.01 µM under setting [2].

Consider `Cc1ccc(CNC(=O)c2ccc3c(c2)N(Cc2ccc(Cl)cc2)C(=O)[C@@H](N)CS3(=O)=O)cn1` [Example 168, (3R)-3-amino-5-[(4-chlorophenyl)methyl]-N-[(6-methylpyridin-3-yl)methyl]-1,1,4-trioxo-2,3,4,5-tetrahydro-1λ^6,5-benzothiazepine-7-carboxamide], for which the EC50 by setting is: under setting [1], 1.58 to 5.01 µM; under setting [2], more than 5.01 µM.

For the compound `Cc1nc(-c2ccc(CN3C(=O)[C@@H](N)CS(=O)(=O)c4ccc(C(=O)NCCCC(F)(F)F)cc43)cc2)no1` [Example 119, (3R)-3-amino-5-{[4-(5-methyl-1,2,4-oxadiazol-3-yl)phenyl]methyl}-1,1,4-trioxo-N-(4,4,4-trifluorobutyl)-2,3,4,5-tetrahydro-1λ^6,5-benzothiazepine-7-carboxamide hydrochloride], the EC50 was 1.58 to 5.01 µM under setting [1] and more than 5.01 µM under setting [2].

As for `N[C@H]1CS(=O)(=O)c2ccc(C(=O)N[C@@H]3C[C@@H]3F)cc2N(Cc2ccc(Cl)cc2)C1=O` [Example 147, (3R)-3-amino-5-[(4-chlorophenyl)methyl]-N-[(1R,2S)-2-fluorocyclopropyl]-1,1,4-trioxo-2,3,4,5-tetrahydro-1λ^6,5-benzothiazepine-7-carboxamide], the EC50 under setting [1] is more than 5.01 µM and the EC50 under setting [2] was more than 5.01 µM.

Take `C[C@@H]1[C@H](N)C(=O)N(Cc2ccc(Cl)cc2)c2cc(C(=O)NCCCC(F)(F)F)c(F)cc2S1(=O)=O` [Example 118, (2R,3R)-3-amino-5-[(4-chlorophenyl)methyl]-8-fluoro-2-methyl-1,1,4-trioxo-N-(4,4,4-trifluorobutyl)-2,3,4,5-tetrahydro-1λ^6,5-benzothiazepine-7-carboxamide hydrochloride]: the EC50 runs as follows: under setting [1], less than 1.58 µM; under setting [2], 1.58 to 5.01 µM.

On to `COc1ccc(CN2C(=O)[C@@H](N)CS(=O)(=O)c3ccc(C(=O)N[C@@H]4CC4(F)F)cc32)cc1` [Example 161, (3R)-3-amino-N-[(1R)-2,2-difluorocyclopropyl]-5-[(4-methoxyphenyl)methyl]-1,1,4-trioxo-2,3,4,5-tetrahydro-1λ^6,5-benzothiazepine-7-carboxamide], for which the EC50 is, setting by setting: under setting [1], more than 5.01 µM; under setting [2], more than 5.01 µM.

As to `N[C@H]1CS(=O)(=O)c2cc(F)c(C(=O)NCc3ccc(F)cc3)cc2N(Cc2nnc(C3CC3)s2)C1=O` [Example 138, (3R)-3-amino-5-[(5-cyclopropyl-1,3,4-thiadiazol-2-yl)methyl]-8-fluoro-N-[(4-fluorophenyl)methyl]-1,1,4-trioxo-2,3,4,5-tetrahydro-1λ^6,5-benzothiazepine-7-carboxamide hydrochloride], the EC50 is 1.58 to 5.01 µM under setting [1] and more than 5.01 µM under setting [2].

Regarding `N[C@H]1CS(=O)(=O)c2ccc(C(=O)NC3CC4(COC4)C3)cc2N(Cc2ccc(Cl)cc2)C1=O` [Example 181, (3R)-3-amino-5-[(4-chlorophenyl)methyl]-N-{2-oxaspiro[3.3]heptan-6-yl}-1,1,4-trioxo-2,3,4,5-tetrahydro-1λ^6,5-benzothiazepine-7-carboxamide], the EC50 runs as follows: under setting [1], more than 5.01 µM; under setting [2], more than 5.01 µM.

The values are drawn from patent US10472341B2, “Bicyclic tetrahydrothiazepine derivatives useful for the treatment of neoplastic and/or infectious diseases” (APEIRON BIOLOGICS AG, priority 2015, dated 2019).
